Source: patent US11613522B2, “Herbicidally active 3-phenylisoxazoline-5-carboxamides of tetrahydro- and dihydrofurancarboxamides” (BAYER AKTIENGESELLSCHAFT, priority 2017, dated 2023)

Key:
Format in all cases: in vivo
Alopecurus myosuroides [1] = assay: Pre-emergence herbicidal activity against ALOMY; conditions: Alopecurus myosuroides, 504 h, dosage 80 g/ha, scored visually after about 3 weeks vs untreated controls
Description: (§1) 1. Pre-emergence herbicidal action against harmful plants and crop plant compatibility Seeds of monocotyledonous and dicotyledonous weed plants and crop plants are placed in plastic or wood fiber pots and covered with soil. The compounds of the invention, formulated in the form of wettable powders (WP) or as emulsion concentrates (EC), are then applied onto the surface of the covering soil as aqueous suspension or emulsion with addition of 0.5% additive at a water application rate of 600 l/ha (converted). After the treatment, the pots are placed in a greenhouse and kept under good growth conditions for the trial plants. After about 3 weeks, the effect of the preparations is scored visually in comparison with untreated controls as percentages. For example, 100% activity=the plants have died, 0% activity=like control plants. [table]

Alopecurus myosuroides [2] = assay: Post-emergence herbicidal activity against ALOMY; conditions: Alopecurus myosuroides, 504 h, dosage 320 g/ha, rated visually after about 3 weeks
Description: (§2) [table] Seeds of monocotyledonous and dicotyledonous weeds and crop plants are placed in sandy loam in plastic or wood-fiber pots, covered with soil and cultivated in a greenhouse under controlled growth conditions. 2 to 3 weeks after sowing, the test plants are treated at the one-leaf stage. The compounds of the invention, formulated in the form of wettable powders (WP) or as emulsion concentrates (EC), are then sprayed onto the green parts of the plants as aqueous suspension or emulsion with addition of 0.5% additive at a water application rate of 600 l/ha (converted). After the test plants had been kept in the greenhouse under optimum growth conditions for about 3 weeks, the activity of the preparations is rated visually in comparison to untreated controls. For example, 100% activity=the plants have died, 0% activity=like control plants.

Abutilon theophrasti = assay: Post-emergence herbicidal activity against ABUTH; conditions: Abutilon theophrasti, 504 h, dosage 320 g/ha, rated visually after about 3 weeks
Description: as §2

Echinochloa crus-galli [3] = assay: Post-emergence herbicidal activity against ECHCG; conditions: Echinochloa crus-galli, 504 h, dosage 320 g/ha, rated visually after about 3 weeks
Description: as §2

Stellaria media [4] = assay: Pre-emergence herbicidal activity against STEME; conditions: Stellaria media, 504 h, dosage 80 g/ha, scored visually after about 3 weeks vs untreated controls
Description: as §1

Polygonum convolvulus [5] = assay: Post-emergence herbicidal activity against POLCO; conditions: Fallopia convolvulus, 504 h, dosage 320 g/ha, rated visually after about 3 weeks
Description: as §2

Echinochloa crus-galli [6] = assay: Pre-emergence herbicidal activity against ECHCG; conditions: Echinochloa crus-galli, 504 h, dosage 80 g/ha, scored visually after about 3 weeks vs untreated controls
Description: as §1

Viola tricolor [7] = assay: Post-emergence herbicidal activity against VIOTR; conditions: Viola tricolor, 504 h, dosage 320 g/ha, rated visually after about 3 weeks
Description: as §2

Setaria viridis [8] = assay: Pre-emergence herbicidal activity against SETVI; conditions: Setaria viridis, 504 h, dosage 80 g/ha, scored visually after about 3 weeks vs untreated controls
Description: as §1

Veronica persica [9] = assay: Pre-emergence herbicidal activity against VERPE; conditions: Veronica persica, 504 h, dosage 80 g/ha
Description: as §1

Avena fatua [10] = assay: Post-emergence herbicidal activity against AVEFA; conditions: Avena fatua, 504 h, dosage 320 g/ha, rated visually after about 3 weeks
Description: as §2

Avena fatua [11] = assay: Pre-emergence herbicidal activity against AVEFA; conditions: Avena fatua, 504 h, dosage 80 g/ha, scored visually after about 3 weeks vs untreated controls, read-out: Pre-emergence herbicidal activity in % against AVEVA (AVEFA)
Description: as §1

Pharbitis purpurea = assay: Post-emergence herbicidal activity against PHBPU; conditions: Ipomoea purpurea, 504 h, dosage 320 g/ha, rated visually after about 3 weeks
Description: as §2

Polygonum convolvulus [12] = assay: Pre-emergence herbicidal activity against POLCO; conditions: Fallopia convolvulus, 504 h, dosage 80 g/ha, scored visually after about 3 weeks vs untreated controls
Description: as §1

Lolium rigidum [13] = assay: Post-emergence herbicidal activity against LOLRI; conditions: Lolium rigidum, 504 h, dosage 320 g/ha, rated visually after about 3 weeks
Description: as §2

Hordeum murinum [14] = assay: Post-emergence herbicidal activity against HORMU; conditions: Hordeum murinum, 504 h, dosage 320 g/ha, rated visually after about 3 weeks
Description: as §2

Lolium rigidum [15] = assay: Pre-emergence herbicidal activity against LOLRI; conditions: Lolium rigidum, 504 h, dosage 80 g/ha, scored visually after about 3 weeks vs untreated controls
Description: as §1

Viola tricolor [16] = assay: Pre-emergence herbicidal activity against VIOTR; conditions: Viola tricolor, 504 h, dosage 80 g/ha, scored visually after about 3 weeks vs untreated controls
Description: as §1

Setaria viridis [17] = assay: Post-emergence herbicidal activity against SETVI; conditions: Setaria viridis, 504 h, dosage 320 g/ha, rated visually after about 3 weeks
Description: as §2

Amaranthus retroflexus [18] = assay: Pre-emergence herbicidal activity against AMARE; conditions: Amaranthus retroflexus, 504 h, dosage 80 g/ha, scored visually after about 3 weeks vs untreated controls
Description: as §1

Stellaria media [19] = assay: Post-emergence herbicidal activity against STEME; conditions: Stellaria media, 504 h, dosage 320 g/ha, rated visually after about 3 weeks
Description: as §2

Veronica persica [20] = assay: Post-emergence herbicidal activity against VERPE; conditions: Veronica persica, 504 h, dosage 320 g/ha, rated visually after about 3 weeks
Description: as §2

Hordeum murinum [21] = assay: Pre-emergence herbicidal activity against HORMU; conditions: Hordeum murinum, 504 h, dosage 80 g/ha
Description: as §1

[22] = Pre-emergence herbicidal action against harmful plants (summary of the tables); conditions: 504 h, application rate of 0.08 kg of active substance or less per hectare, read-out: herbicidal action, pre-emergence treatment (very good activity)
Description: as §1, with “plants.” for “plants. [table]”
As shown by the results, compounds according to the invention such as, for example, the compounds No. I-02 and other compounds from the tables (I-05, I-10, I-11, I-12, I-13, I-14, I-15, I-16, I-17, I-18, I-19, I-20, I-21, I-22, I-23, I-24, I-25, I-26, I-27, I-28, I-29) have, when used for pre-emergence treatment, very good activity (80% to 100% herbicidal action) against harmful plants such as Abutilon theophrasti, Alopecurus myosuroides, Amaranthus retroflexus, Avena fatua, Cyperus esculentus, Echinochloa crus-galli, Hordeum murinum, Lolium rigidum, Pharbitis purpurea, Polygonum convolvulus, Setaria viridis, Stellaria media, Veronica persica and Viola tricolor at an application rate of 0.08 kg of active substance or less per hectare.

Amaranthus retroflexus [23] = assay: Post-emergence herbicidal activity against AMARE; conditions: Amaranthus retroflexus, 504 h, dosage 320 g/ha, rated visually after about 3 weeks
Description: as §2

Row | Compound | pest or weed control at 80 g/ha (Alopecurus myosuroides [1]) | pest or weed control at 320 g/ha (Alopecurus myosuroides [2]) | pest or weed control at 320 g/ha (Abutilon theophrasti) | pest or weed control at 320 g/ha (Echinochloa crus-galli [3]) | pest or weed control at 80 g/ha (Stellaria media [4]) | pest or weed control at 320 g/ha (Polygonum convolvulus [5]) | pest or weed control at 80 g/ha (Echinochloa crus-galli [6]) | pest or weed control at 320 g/ha (Viola tricolor [7]) | pest or weed control at 80 g/ha (Setaria viridis [8]) | pest or weed control at 320 g/ha (Avena fatua [10]) | pest or weed control at 80 g/ha (Avena fatua [11]) | pest or weed control at 320 g/ha (Pharbitis purpurea) | pest or weed control at 80 g/ha (Polygonum convolvulus [12]) | pest or weed control at 320 g/ha (Lolium rigidum [13]) | pest or weed control at 320 g/ha (Hordeum murinum [14]) | pest or weed control at 80 g/ha (Lolium rigidum [15]) | pest or weed control at 320 g/ha (Setaria viridis [17]) | pest or weed control at 320 g/ha (Stellaria media [19]) | pest or weed control at 320 g/ha (Veronica persica [20]) | pest or weed control at 80 g/ha [22] | also measured
1 | C=C[C@]1(C(=O)N[C@@H]2CO[C@H](C(=O)NN(C)C)C2)CC(c2cc(F)cc(F)c2)=NO1 (mixture of isomers) [Example I-15, (5S)-3-(3,5-difluorophenyl)-N-[cis-5-(dimethylaminocarbamoyl)tetrahydrofuran-3-yl]-5-vinyl-4H-isoxazole-5-carboxamide] | 100% | 100% | 80% | 90% | 100% | 90% | 90% | 80% | 100% | 100% | 90% | 80% | 100% | 90% | 90% | 100% | 80% | 90% | 80% | 80 to 100% | pest or weed control at 80 g/ha (Veronica persica [9]): 100%; pest or weed control at 80 g/ha (Viola tricolor [16]): 100%; pest or weed control at 80 g/ha (Amaranthus retroflexus [18]): 100%; pest or weed control at 80 g/ha (Hordeum murinum [21]): 90%
2 | C=CC1(C(=O)N[C@@H]2CO[C@H](C(=O)NC)C2)CC(c2cc(F)cc(F)c2)=NO1 (relative stereo) [Example I-02, 3-(3,5-difluorophenyl)-N-[cis-5-(methylcarbamoyl)tetrahydrofuran-3-yl]-5-vinyl-4H-isoxazole-5-carboxamide] | 90% | 100% | 80% | 80% | 100% | – | 100% | 80% | – | 90% | 100% | 90% | – | – | – | – | 90% | 90% | 80% | 80 to 100% | pest or weed control at 80 g/ha (Veronica persica [9]): 90%; pest or weed control at 80 g/ha (Amaranthus retroflexus [18]): 100%
3 | C=C[C@]1(C(=O)N[C@H]2CO[C@@H](C(=O)NNC(=O)OC(C)(C)C)C2)CC(c2cc(F)cc(F)c2)=NO1 (mixture of isomers) [Example I-19, tert-butyl N-[[cis-4-[[(5S)-3-(3,5-difluorophenyl)-5-vinyl-4H-isoxazole-5-carbonyl]amino]tetrahydrofuran-2-carbonyl]amino]carbamate] | – | 90% | 90% | 90% | 90% | 90% | 80% | 90% | 90% | 90% | 90% | 90% | 90% | 90% | 90% | 100% | 90% | 90% | 80% | 80 to 100% | pest or weed control at 320 g/ha (Amaranthus retroflexus [23]): 90%; pest or weed control at 80 g/ha (Viola tricolor [16]): 80%; pest or weed control at 80 g/ha (Hordeum murinum [21]): 100%
4 | CONC(=O)[C@@H]1C[C@H](NC(=O)C2(C)CC(c3cccc(F)c3)=NO2)CO1 (relative stereo) [Example I-10, 3-(3-fluorophenyl)-N-[cis-5-(methoxycarbamoyl)tetrahydrofuran-3-yl]-5-methyl-4H-isoxazole-5-carboxamide] | 100% | 100% | – | 90% | 90% | – | 80% | – | 90% | 90% | 80% | 90% | 90% | 90% | 90% | 100% | 90% | 80% | 80% | 80 to 100% | pest or weed control at 320 g/ha (Amaranthus retroflexus [23]): 80%; pest or weed control at 80 g/ha (Amaranthus retroflexus [18]): 90%; pest or weed control at 80 g/ha (Hordeum murinum [21]): 100%
5 | CNC(=O)[C@@H]1C[C@H](NC(=O)C2(C)CC(c3cc(F)cc(F)c3)=NO2)CO1 (relative stereo) [Example I-05, 3-(3,5-difluorophenyl)-5-methyl-N-[cis-5-(methylcarbamoyl)tetrahydrofuran-3-yl]-4H-isoxazole-5-carboxamide] | – | 90% | 80% | 90% | 80% | 80% | – | 80% | 90% | 80% | 100% | 80% | 90% | – | – | – | 80% | 80% | 80% | 80 to 100% | pest or weed control at 320 g/ha (Amaranthus retroflexus [23]): 80%; pest or weed control at 80 g/ha (Viola tricolor [16]): 100%
